Structures are written as SMILES.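 Where inhibition never reached the appropriate level, the endpoint shown equals the highest concentration tested. Otherwise, values were interpolated linearly from a five-concentration, 48-hour dose response in 96-well plates. The concentration for 50% growth inhibition is given as GI50. TGI: concentration producing complete growth inhibition.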

Test systems include UO-31 renal; OVCAR-8 ovarian; EKVX NSCLC; MDA-MB-231 breast; DU-145 prostate; HL-60(TB) leukemia; SN12C renal; COLO 205 colon; NCI-H226 lung; A498 renal.
Common to all, as to test: NCI anticancer screen, dose series, 48 h

Consider `CC(C)(C)OC(=O)NCCCCCCCCCn1c2c(c3ccccc3c1=O)C(=O)c1ccccc1-2`, for which the GI50 was > 100 µM in the experiment with UO-31 renal; 56.1 µM in the experiment on OVCAR-8 ovarian; 49.2 µM in the experiment on EKVX NSCLC; 31.7 µM in the experiment with MDA-MB-231 breast; > 100 µM with DU-145 prostate; > 100 µM in the experiment with HL-60(TB) leukemia. Also, the GI50 in the experiment on SN12C renal was 76.8 µM; in the experiment with COLO 205 colon, > 100 µM; in the experiment on NCI-H226 lung, 41 µM. The TGI in the experiment on UO-31 renal, in the experiment with OVCAR-8 ovarian, in the experiment with EKVX NSCLC, with MDA-MB-231 breast, with DU-145 prostate and with HL-60(TB) leukemia was > 100 µM throughout. Besides, the TGI with SN12C renal, in the experiment with COLO 205 colon and in the experiment with NCI-H226 lung was > 100 µM in each case.
Turning to `COc1ccc(-c2nc(NC(=O)CS(=O)(=O)c3ccc(F)cc3)sc2C)cc1`, the GI50 with UO-31 renal was 18.9 µM; in the experiment with OVCAR-8 ovarian, 24.1 µM; in the experiment on MDA-MB-231 breast, 23.2 µM; in the experiment on DU-145 prostate, 34.5 µM; in the experiment on HL-60(TB) leukemia it was 16.5 µM; in the experiment with SN12C renal, 19 µM. Further, the GI50 with COLO 205 colon was 15.3 µM; with A498 renal, 11.6 µM; in the experiment with NCI-H226 lung it was 23.8 µM. In addition, the TGI is 92 µM with UO-31 renal; 89.3 µM with OVCAR-8 ovarian; > 100 µM in the experiment with MDA-MB-231 breast; > 100 µM in the experiment with DU-145 prostate; 66 µM in the experiment on HL-60(TB) leukemia; 52.5 µM in the experiment on SN12C renal. Further, the TGI was 30.6 µM in the experiment on COLO 205 colon, 32.8 µM in the experiment with A498 renal and 87.8 µM with NCI-H226 lung.
Regarding `COc1ccc([N+](=O)[O-])c2c(NCCCN(C)C)c(C)c(C)nc12`, the TGI with UO-31 renal, in the experiment on OVCAR-8 ovarian, in the experiment with MDA-MB-231 breast, in the experiment on DU-145 prostate, in the experiment with HL-60(TB) leukemia and in the experiment with SN12C renal was > 100 µM in each case. Further, the TGI with COLO 205 colon and in the experiment with A498 renal was > 100 µM in each case.
In the case of `Cc1cc(NC(=O)NCCOc2ccc(N3C(N)=NC(N)=NC3(C)C)cc2Cl)ccc1S(=O)(=O)F`, the GI50 with UO-31 renal is > 100 µM; in the experiment on OVCAR-8 ovarian, 4.91 µM; with MDA-MB-231 breast, 6.11 µM; with DU-145 prostate, 2.53 µM; in the experiment with HL-60(TB) leukemia, 1.8 µM; in the experiment on SN12C renal, 1.85 µM. Further, the GI50 with COLO 205 colon was 1.4 µM; in the experiment with A498 renal, 10.2 µM; with NCI-H226 lung, 8.57 µM. In addition, the TGI in the experiment on UO-31 renal is > 100 µM; with OVCAR-8 ovarian, > 100 µM; in the experiment on MDA-MB-231 breast, > 77.9 µM; in the experiment with DU-145 prostate it was > 100 µM; in the experiment with HL-60(TB) leukemia, 36.8 µM; with SN12C renal, > 100 µM. In addition, the values for the TGI in the experiment with COLO 205 colon, in the experiment on A498 renal and in the experiment on NCI-H226 lung were 30.4 µM, > 100 µM and > 100 µM, respectively.
Consider `CC(=O)c1cc2c(Br)cccc2oc1=O`, for which the TGI in the experiment on OVCAR-8 ovarian, with EKVX NSCLC, in the experiment with MDA-MB-231 breast, in the experiment with DU-145 prostate, with HL-60(TB) leukemia and in the experiment on SN12C renal was > 100 µM in each case. Besides, the TGI in the experiment with COLO 205 colon, in the experiment with A498 renal and in the experiment on NCI-H226 lung was > 100 µM in each case.
Consider `OCc1c(-c2cccs2)oc(-c2cccs2)c1CO`, for which the GI50 in the experiment with UO-31 renal was 50.5 µM; in the experiment with OVCAR-8 ovarian, 50.7 µM; in the experiment on EKVX NSCLC, 34.6 µM; in the experiment with MDA-MB-231 breast it was 47.3 µM; in the experiment on DU-145 prostate, 67.9 µM; in the experiment with HL-60(TB) leukemia, 21.1 µM. In addition, the GI50 was 35.9 µM in the experiment with COLO 205 colon, 34.3 µM in the experiment on A498 renal and 50.3 µM with NCI-H226 lung. Moreover, the TGI with UO-31 renal is > 100 µM; with OVCAR-8 ovarian, > 100 µM; with EKVX NSCLC it was > 100 µM; in the experiment on MDA-MB-231 breast, 94 µM; in the experiment with DU-145 prostate, > 100 µM; in the experiment on HL-60(TB) leukemia, 70 µM. In addition, the values for the TGI in the experiment on COLO 205 colon, in the experiment on A498 renal and with NCI-H226 lung were > 100 µM, 91.7 µM and > 100 µM, respectively.
As for `CN[C@@H](C)C(=O)N[C@H](C(=O)N1CCC[C@H]1c1nc(C(=O)c2ccc(F)cc2)cs1)C1CCCCC1`, the GI50 in the experiment with UO-31 renal was 36.1 µM; with OVCAR-8 ovarian it was 11.1 µM; in the experiment on MDA-MB-231 breast, 0.324 µM; in the experiment with DU-145 prostate, 44.5 µM; in the experiment on HL-60(TB) leukemia, 3.69 µM; in the experiment with SN12C renal it was 39.2 µM. The GI50 was 16.5 µM with COLO 205 colon, 6.59 µM in the experiment on A498 renal and 31.2 µM in the experiment on NCI-H226 lung. The TGI is > 94.3 µM in the experiment on UO-31 renal; 29.3 µM in the experiment on OVCAR-8 ovarian; 20.6 µM with MDA-MB-231 breast; > 100 µM in the experiment on DU-145 prostate; 20 µM in the experiment on HL-60(TB) leukemia; > 100 µM in the experiment on SN12C renal. The values for the TGI in the experiment with COLO 205 colon, in the experiment with A498 renal and in the experiment with NCI-H226 lung were 31.9 µM, 25.4 µM and > 100 µM, respectively.
As to `C=C1C(=O)OC2CC1C(OC(=O)/C=C/c1ccccc1)C/C(C)=C/CC/C(C)=C/CCC2(C)O` (centres undefined), the TGI in the experiment on UO-31 renal was found to be 3 µM; in the experiment with OVCAR-8 ovarian, 6.99 µM; in the experiment with EKVX NSCLC it was 3.66 µM; with MDA-MB-231 breast, 5.39 µM; with DU-145 prostate it was 2.77 µM; in the experiment with SN12C renal it was 3.04 µM. In addition, the TGI is > 19.9 µM with COLO 205 colon, 3.68 µM in the experiment with A498 renal and 3.57 µM with NCI-H226 lung.
`O=C1OC(c2ccc([N+](=O)[O-])cc2)=N/C1=C\c1ccc(Cl)cc1`: the TGI in the experiment with OVCAR-8 ovarian, in the experiment on EKVX NSCLC, with MDA-MB-231 breast, in the experiment on DU-145 prostate, with HL-60(TB) leukemia and with SN12C renal was > 100 µM each time. For the same molecule, the TGI in the experiment with COLO 205 colon, in the experiment on A498 renal and in the experiment on NCI-H226 lung was > 100 µM in each case.
For `Cc1[nH]n(-c2nc(-c3ccccc3)cc(=O)[nH]2)c(=O)c1CCO`, the TGI in the experiment on UO-31 renal, in the experiment on OVCAR-8 ovarian, with EKVX NSCLC, in the experiment on MDA-MB-231 breast, in the experiment on DU-145 prostate and in the experiment on HL-60(TB) leukemia was > 100 µM throughout. For the same molecule, the TGI in the experiment on SN12C renal, in the experiment with COLO 205 colon and in the experiment with NCI-H226 lung was > 100 µM throughout.

The values are drawn from PubChem BioAssay (NCI).
